Measured values taken from the METLIN SMRT retention time set (Domingo-Almenara et al. 2019).

Test: gradient 5% acetonitrile 3 min, to 50% in 2 min, to 85% in 15 min, held 3 min, 100 µL/min
Details: column: Zorbax Extend-C18 2.1 x 50 mm; eluents: water / acetonitrile, 0.1% formic acid
Method in brief: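 Retention time was recorded from adduct peaks, which were picked computationally and each inspected manually. Pure standards ran in mixtures of ~100 molecules on HPLC coupled to a quadrupole time-of-flight mass spectrometer, in positive and negative ionization mode, through a Zorbax Extend-C18 column (2.1 × 50 mm, 1.8 μm) at 100 μL/min. Eluents were water and acetonitrile, each with 0.1% formic acid.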

| Compound | RP-LC retention time [s] |
| --- | --- |
| CC(=O)Nc1ccc(-c2nc3ccccc3s2)cc1 | 799 |
| Cc1ccc(C)c(N2CCN(C(=O)c3cn4ccccc4n3)CC2)c1 | 771 |
| COCc1cc(=O)n(CC(=O)Nc2ccc(Br)cc2)c(N2CCOCC2)n1 | 892 |
| CCN(CC)S(=O)(=O)c1ccc(Cl)c(-c2nnc(-c3ccccc3OC)o2)c1 | 1020 |
| O=C(Cc1ccc(F)cc1)NC1CCN(c2cc(-c3cccs3)[nH]n2)C1 (centres undefined) | 707 |
| Cc1nc2cccnc2n1CC1CCCN(S(=O)(=O)c2cccc(Br)c2)C1 (centres undefined) | 735 |
| Cc1ccc2[nH]cc(CCNC(=O)c3sc4ncccc4c3-n3cccc3)c2c1 | 1070 |
| Cc1nnc2c(=O)n(CC(=O)N3CCN(C4CCCCC4)CC3)c3cccnc3n12 | 587 |
| CC(C)N1CCC(CNC(=O)c2cccc3ccccc23)CC1 | 546 |
| COc1ccc(S(=O)(=O)N2CCc3c(c(CN(C(C)=O)c4ccccc4)nn3C)C2)cc1Cl | 846 |
| CCn1cc(-c2nc(C(=O)Nc3ccc(C#N)cc3)cs2)c2cccnc21 | 1050 |
| Cc1cc(N2CCN(C)CC2)nc2ccc(NC(=S)NCC3(c4ccccc4)CCCC3)cc12 | 636 |
| Cc1ccccc1Cn1nc(-c2nc(-c3ccc(F)cc3)no2)ccc1=O | 1130 |
| Cc1ccc(CNC(=O)C2(C)CCN(S(=O)(=O)c3cc(C)cc(C)c3)CC2)cc1 | 1030 |
| Cc1sc(-c2nc(-c3cccc(F)c3)no2)cc1S(=O)(=O)N1CCN(c2ccccn2)CC1 | 959 |
| Fc1ccc(N2CCN(c3nnc(SCc4cccnc4)s3)CC2)cc1 | 633 |
| Cc1ccc2nc(NC(=O)CSc3nc4c(c(=O)n3-c3ccccc3)SCC4)sc2c1 | 922 |
| COc1ncccc1CNS(=O)(=O)c1ccc(C)cc1 | 817 |
| Cc1ccc(-c2nc(NC(=O)Cc3csc(C)n3)sc2C)cc1 | 944 |
| CC1CNc2c(cccc2S(=O)(=O)N[C@@H](CCCN=C(N)N)C(=O)N2CC[C@@H](C)C[C@@H]2C(=O)O)C1 (some centres undefined) | 822 |
| CCn1nccc1C(=O)N1CC(Oc2cccc(-c3nc(C)no3)c2)C1 | 811 |
| COc1ccc(NS(=O)(=O)c2ccc3c(c2)-c2oncc2CO3)c(OC)c1 | 852 |

| Compound | RP-LC retention time [s] |
| --- | --- |
| CSc1cccc2sc(N(Cc3ccco3)C(=O)c3ccc(C#N)cc3)nc12 | 1110 |
| Cc1cc(C)cc(C(=O)Nc2ccc(N3CCN(c4ccccc4)C3=O)nc2)c1 | 1050 |
| Cc1ccc(S(=O)(=O)N2CCOCC2)cc1-c1nnc(-c2ccccc2)o1 | 919 |
| CC(C)NC(=O)c1ccc(OCC2CCCN(C(=O)C3CCCO3)C2)cc1 (centres undefined) | 688 |
| CCn1cc(S(=O)(=O)Nc2ccc(OC)c(Cl)c2)c2cccnc21 | 832 |
| COc1ccc(C(C)NC(=O)Cn2nc3cc(-c4ccccc4)nc(C)n3c2=O)cc1 (centres undefined) | 908 |
| COc1ccc(NC(=O)c2cc3c(=O)n(CC(C)C)c4ccccc4n3n2)cc1F | 1070 |
| O=C(CCc1nnn2c1CN(C(=O)NC1CCCC1)CC2)N1CCOCC1 | 615 |
| CCOc1ccc(CN2CCc3nc(N4CCN(c5ccccc5F)CC4)ncc3C2)cc1 | 834 |
| Cc1nn(CCCC(=O)N2CCOCC2)c(=O)c2c(-n3cccc3)n(-c3ccccc3)nc12 | 788 |
| O=C(Cn1nc(Cc2ccncc2)c2ccccc2c1=O)N1CC=C(c2ccccc2)CC1 | 685 |
| CCCn1c(=O)c(C)nc2cc(-c3noc(/C=C/c4cccs4)n3)ccc21 | 792 |
| CC(C)c1ccc(NC(=O)C2CCN(S(=O)(=O)c3ccc4c(c3)CCCC(=O)N4)CC2)cc1 | 883 |
| Cc1ccc(-c2coc(-c3ccc(NS(=O)(=O)c4ccc(Cl)s4)cc3)n2)c(C)c1 | 1350 |
| COc1ccccc1OCC(O)CN1CCN(CC(=O)Nc2c(C)cccc2C)CC1 (centres undefined) | 683 |
| COCCc1noc(-c2cnc3nc(C)ccc3c2NCc2ccccc2C)n1 | 653 |
| Cc1ccc(-c2csc(NC(=O)CSc3nc4c(cc3C#N)CCC4)n2)cc1 | 1210 |
| O=C(Nc1ccc2nc(N3CCC(N4CCCCC4)CC3)cc(C(=O)O)c2c1)c1cccc(Cl)c1 | 601 |
| Cc1nc2cc(N3CC(C(=O)Nc4ccc(Cl)cc4F)CC3=O)ccc2o1 (centres undefined) | 787 |
| Cc1cc(C)c(C(=O)N2CCC(CC(=O)NCCCN3CCN(C)CC3)CC2)[nH]1 | 566 |
| CC(C)n1c(CNC(=O)C2CC(=O)N(c3n[nH]c4ccccc34)C2)nc2ccccc21 (centres undefined) | 614 |
| CCOC(=O)Cn1nc2ccc(S(=O)(=O)N3CCC(C)CC3)cn2c1=O | 877 |
